According to patent publication US20060069132A1, “Azolecarboxamide herbicides” (priority 2004, published 2006):

Experiments:
barnyardgrass = assay: Test D flooded paddy test; format: in vivo, Echinochloa crus-galli; settings: 21 days, scale 0 to 100
Excerpt: (§1) Three plastic pots (ca. 16-cm diameter) per rate were partially filled with sterilized Tama silt loam soil comprising a 35:50:15 ratio of sand, silt and clay and 2.6% organic matter. Separate plantings for each of the three pots were as follows. Seeds from the U.S. of ducksalad (Heteranthera limosa (Sw.) Willd.), smallflower umbrella sedge (Cyperus difformis L.) and purple redstem (Ammannia coccinea Rottb.), were planted into one 16-cm pot for each rate. Seeds from the U.S. of rice flatsedge (Cyperus iria L.), bearded sprangletop (Leptochloa fascicularis (Lam.) Gray), one stand of 9 or 10 water seeded rice seedlings (Oryza sativa L. cv. ‘Japonica—M202’), and one stand of 6 transplanted rice seedlings (Oryza sativa L. cv. ‘Japonica—M202’) were planted into one 16-cm pot for each rate. Seeds from the U.S. of barnyardgrass (Echinochloa crus-galli (L.) Beauv.), late watergrass (Echinochloa oryzicola Vasinger), early watergrass (Echinochloa oryzoides (Ard.) Fritsch) and junglerice (Echinochloa colona (L.) Link) were planted into one 16-cm pot for each rate. Plantings were sequential so that crop and weed species were at the 2.0 to 2.5-leaf stage at time of treatment.
(§2) Potted plants were grown in a greenhouse with day/night temperature settings of 29.5/26.7° C., and supplemental balanced lighting was provided to maintain a 16-hour photoperiod. Test pots were maintained in the greenhouse until test completion.
(§3) At time of treatment, test pots were flooded to 3 cm above the soil surface, treated by application of test compounds directly to the paddy water, and then maintained at that water depth for the duration of the test. Effects of treatments on rice and weeds were visually evaluated by comparison to untreated controls after 21 days. Plant response ratings are reported on a 0 to 100 scale; where 0 is no effect and 100 is complete control. A dash (-) response means no test result.

purple redstem = assay: Test D flooded paddy test; format: in vivo, Ammannia coccinea; settings: 21 days, scale 0 to 100
Excerpt: as §1, §2, §3

Italian ryegrass = assay: Test F pre-/postemergence herbicide test; format: in vivo, Lolium multiflorum
Excerpt: (§4) Seeds of plant species selected from annual blugrass (Poa annua L.), blackgrass (Alopecurus myosuroides Huds.), catchweed bedstraw (Gallium aparine L.), common chickweed (Stellaria media (L.) Vill./Cyr.), downy bromegrass (Bromus tectorum L.), green foxtail (Setaria viridis (L.) Beauv.), Italian ryegrass (Lolium multiflorum Lam.), kochia (Kochia scoparia (L.). Schrad.), lambsquarters (Chenopodium album L.), littleseed canarygrass (Phalaris minor Retz.), pigweed (Amaranthus retroflexus L.), Russian thistle (Salsola kali L. ssp. Ruthenica (Iljin) Soo), wild buckwheat (Polygonum convolvulus L.), wild mustard (Sinapis arvensis L.), wild oat (Avena fatua L.), windgrass (Apera spica-venti (L.) Beauv.), winter barley (Hordeum vulgare L.), and wheat (Triticum aestivum L.) were planted and treated preemergence with test chemicals formulated in a non-phytotoxic solvent mixture which included a surfactant.
(§5) At the same time, plants selected from these crop and weed species were treated with postemergence applications of some of the test chemicals formulated in the same manner. Plants ranged in height from 2 to 18 cm (1- to 4-leaf stage) for postemergence treatments. Treated plants and controls were maintained in a greenhouse for 12 to 14 days, after which time all species were compared to controls and visually evaluated. Plant response ratings, summarized in Table F, are based on a scale of 0 to 100 where 0 is no effect and 100 is complete control. A dash (-) response means no test result.

common chickweed = assay: Test F pre-/postemergence herbicide test; format: in vivo, Stellaria media
Excerpt: as §4, §5

CCc1nc(C(C)(C)C)sc1C(=O)Nc1cccc(C(=O)NCC2CC2)n1 [Compound 215]
Plant response rating, Barnyardgrass (barnyardgrass; 125 g ai/ha): 0 | Plant response rating, Barnyardgrass (barnyardgrass; 250 g ai/ha): 0 | Plant response rating, Barnyardgrass (barnyardgrass; 500 g ai/ha): 0 | Plant response rating, Barnyardgrass (barnyardgrass; 750 g ai/ha): 30 | Plant response rating, Barnyardgrass (barnyardgrass; 1000 g ai/ha): 40 | Plant response rating, Redstem (purple redstem; 125 g ai/ha): 0 | Plant response rating, Redstem (purple redstem; 250 g ai/ha): 100 | Plant response rating, Redstem (purple redstem; 500 g ai/ha): 100 | Plant response rating, Redstem (purple redstem; 750 g ai/ha): 100 | Plant response rating, Redstem (purple redstem; 1000 g ai/ha): 100

CCNC(=O)c1ccnc(NC(=O)c2cc(C(C)(C)C)nn2CC)c1 [Compound 152]
Plant response rating, Barnyardgrass (barnyardgrass; 8 g ai/ha): 0 | Plant response rating, Barnyardgrass (barnyardgrass; 16 g ai/ha): 0 | Plant response rating, Barnyardgrass (barnyardgrass; 32 g ai/ha): 0 | Plant response rating, Barnyardgrass (barnyardgrass; 64 g ai/ha): 10 | Plant response rating, Barnyardgrass (barnyardgrass; 125 g ai/ha): 35 | Plant response rating, Redstem (purple redstem; 8 g ai/ha): 0 | Plant response rating, Redstem (purple redstem; 16 g ai/ha): 0 | Plant response rating, Redstem (purple redstem; 32 g ai/ha): 60 | Plant response rating, Redstem (purple redstem; 64 g ai/ha): 85 | Plant response rating, Redstem (purple redstem; 125 g ai/ha): 90

CCn1nc(C(C)(C)C)cc1C(=O)Nc1cc(C(=O)OC(C)C)c(F)cc1F [Compound 248]
Plant response rating (0-100), Ryegrass, Italian (Italian ryegrass; Postemergence, 31 g ai/ha): 45 | Plant response rating (0-100), Ryegrass, Italian (Italian ryegrass; Postemergence, 62 g ai/ha): 55 | Plant response rating (0-100), Ryegrass, Italian (Italian ryegrass; Postemergence, 125 g ai/ha): 60 | Plant response rating (0-100), Ryegrass, Italian (Italian ryegrass; Postemergence, 250 g ai/ha): 65 | Plant response rating (0-100), Ryegrass, Italian (Italian ryegrass; Preemergence, 31 g ai/ha): 30 | Plant response rating (0-100), Ryegrass, Italian (Italian ryegrass; Preemergence, 62 g ai/ha): 50 | Plant response rating (0-100), Ryegrass, Italian (Italian ryegrass; Preemergence, 125 g ai/ha): 50 | Plant response rating (0-100), Ryegrass, Italian (Italian ryegrass; Preemergence, 250 g ai/ha): 60 | Plant response rating (0-100), Chickweed (common chickweed; Postemergence, 31 g ai/ha): 65 | Plant response rating (0-100), Chickweed (common chickweed; Postemergence, 62 g ai/ha): 65 | Plant response rating (0-100), Chickweed (common chickweed; Postemergence, 125 g ai/ha): 98 | Plant response rating (0-100), Chickweed (common chickweed; Postemergence, 250 g ai/ha): 100 | Plant response rating (0-100), Chickweed (common chickweed; Preemergence, 31 g ai/ha): 100 | Plant response rating (0-100), Chickweed (common chickweed; Preemergence, 62 g ai/ha): 100 | Plant response rating (0-100), Chickweed (common chickweed; Preemergence, 125 g ai/ha): 100 | Plant response rating (0-100), Chickweed (common chickweed; Preemergence, 250 g ai/ha): 100
